Assay results from ChEMBL document CHEMBL1201862, “PubChem BioAssay data set” (2004).
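Five concentrations, 48 hours, 96-well plates. GI50 marks 50% less growth.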 Activity calls are given as the source filed them. Cut-off read from the data, not from the text of the source: active = GI50 up to about 1.1 µM and inactive = higher.

Assays:
Experiment in all cases: NCI anticancer screen, dose series, 48 h
NCI-H23 = tested on: NCI-H23
T47D = tested on: T47D
OVCAR-3 = tested on: OVCAR-3
NCI-H522 = tested on: NCI-H522
RPMI-8226 = tested on: RPMI-8226
A498 = tested on: A498
PC-3 = tested on: PC-3
U-251 = tested on: U-251
HCC 2998 = tested on: HCC 2998
IGROV-1 = tested on: IGROV-1
SN12C = tested on: SN12C
SF-268 = tested on: SF-268
TK-10 = tested on: TK-10
SF-295 = tested on: SF-295
Hs-578T = tested on: Hs-578T
EKVX = tested on: EKVX
SW-620 = tested on: SW-620
OVCAR-8 = tested on: OVCAR-8
M14 = tested on: M14
MDA-N = tested on: MDA-N

Measured: GI50

COc1cc2c(cc1O)NC(=O)[C@@H]1C[C@@H](O)CN1C2=O
inactive: NCI-H23 > 100 µM | T47D > 100 µM | OVCAR-3 29.2 µM | NCI-H522 33.8 µM | RPMI-8226 45.6 µM | A498 > 100 µM | PC-3 43.8 µM | U-251 79.3 µM | HCC 2998 > 100 µM | IGROV-1 > 100 µM | SN12C > 100 µM | SF-268 88.1 µM | TK-10 > 100 µM | SF-295 27 µM | Hs-578T 43.8 µM | EKVX > 100 µM | SW-620 64.3 µM | OVCAR-8 98.2 µM | M14 72.1 µM

CCSCN(C)c1nc(N(C)C)nc(N(C)C)n1
inactive: NCI-H23 33.6 µM | OVCAR-3 38.3 µM | NCI-H522 35 µM | RPMI-8226 49.1 µM | A498 47.8 µM | U-251 54.2 µM | HCC 2998 > 100 µM | IGROV-1 78.7 µM | SN12C 77.6 µM | SF-268 > 100 µM | TK-10 > 100 µM | SF-295 92.3 µM | EKVX > 100 µM | SW-620 35.9 µM | OVCAR-8 81.5 µM | M14 39.8 µM

O=C(Cc1nc2ccccc2o1)C(=O)Nc1ccccc1C(F)(F)F
inactive: NCI-H23 > 100 µM | OVCAR-3 > 100 µM | NCI-H522 > 100 µM | RPMI-8226 > 100 µM | A498 > 100 µM | U-251 > 100 µM | HCC 2998 > 100 µM | IGROV-1 > 100 µM | SN12C > 100 µM | SF-268 > 100 µM | TK-10 > 100 µM | SF-295 > 100 µM | EKVX > 100 µM | SW-620 > 100 µM | OVCAR-8 > 100 µM | M14 > 100 µM

c1ccc2c(c1)c(N1CCCCC1)cc1nc3c(cc(N4CCCCC4)c4ccccc43)nc12
inactive: NCI-H23 > 100 µM | OVCAR-3 > 100 µM | MDA-N > 100 µM | NCI-H522 > 100 µM | RPMI-8226 > 100 µM | A498 > 100 µM | PC-3 > 100 µM | U-251 > 100 µM | HCC 2998 > 100 µM | IGROV-1 > 100 µM | SN12C > 100 µM | SF-295 > 100 µM | EKVX > 100 µM | SW-620 > 100 µM | OVCAR-8 > 100 µM | M14 > 100 µM

Nc1nc(CC2(O)CCCCC2)cc(-c2ccccc2)n1
inactive: NCI-H23 > 43 µM | OVCAR-3 25.6 µM | NCI-H522 27.2 µM | RPMI-8226 23.6 µM | A498 33.5 µM | U-251 39 µM | HCC 2998 26.6 µM | IGROV-1 43 µM | SN12C 20.3 µM | SF-268 > 64.4 µM | TK-10 > 61.8 µM | SF-295 38.5 µM | EKVX 35.6 µM | SW-620 25.7 µM | OVCAR-8 > 50.2 µM | M14 29.2 µM

CC#C[C@@]1(O)CCCCC1O (some centres undefined)
inactive: NCI-H23 > 100 µM | OVCAR-3 > 100 µM | NCI-H522 > 100 µM | RPMI-8226 > 100 µM | A498 > 100 µM | U-251 > 100 µM | HCC 2998 > 100 µM | IGROV-1 > 100 µM | SN12C > 100 µM | SF-268 > 100 µM | TK-10 > 100 µM | SF-295 > 100 µM | EKVX > 100 µM | SW-620 > 100 µM | OVCAR-8 > 100 µM | M14 > 100 µM

CNc1cc([N+](=O)[O-])ccc1C(=O)N1CCC[C@H]1CO
inactive: T47D > 100 µM | OVCAR-3 > 100 µM | MDA-N > 100 µM | NCI-H522 > 100 µM | RPMI-8226 > 100 µM | A498 > 100 µM | PC-3 > 100 µM | U-251 > 100 µM | IGROV-1 > 100 µM | SN12C > 100 µM | SF-268 8.83 µM | TK-10 > 100 µM | SF-295 > 100 µM | EKVX > 100 µM | SW-620 > 100 µM | OVCAR-8 > 100 µM | M14 > 100 µM

COC(=O)c1cc(OCc2cc(OCc3ccc(Br)cc3)cc(OCc3ccc(Br)cc3)c2)cc(OCc2cc(OCc3ccc(Br)cc3)cc(OCc3ccc(Br)cc3)c2)c1
inactive: NCI-H23 > 100 µM | T47D > 100 µM | OVCAR-3 > 100 µM | MDA-N > 100 µM | NCI-H522 > 100 µM | RPMI-8226 > 100 µM | A498 > 100 µM | PC-3 > 100 µM | U-251 > 100 µM | HCC 2998 > 100 µM | SN12C > 100 µM | SF-268 > 100 µM | TK-10 > 100 µM | SF-295 > 100 µM | EKVX > 100 µM | M14 > 100 µM

COc1ccccc1N/C(SCc1ccccc1)=C(/C(Cl)=C(Cl)Cl)[N+](=O)[O-]
inactive: NCI-H23 16.1 µM | T47D 26.1 µM | OVCAR-3 18.7 µM | MDA-N 28.9 µM | RPMI-8226 26.6 µM | A498 82.8 µM | PC-3 31.8 µM | U-251 21.1 µM | SN12C 20.3 µM | SF-268 18.6 µM | SF-295 25.7 µM | EKVX 32 µM | SW-620 17.8 µM | OVCAR-8 14.4 µM | M14 27 µM

C[Si](C)(C)C1(Sc2ccccc2)SCCCS1
inactive: NCI-H23 31.6 µM | OVCAR-3 30.1 µM | NCI-H522 17.9 µM | RPMI-8226 24.6 µM | A498 40.6 µM | U-251 38.4 µM | HCC 2998 31.5 µM | IGROV-1 41.8 µM | SN12C 27 µM | SF-268 31.8 µM | TK-10 > 100 µM | SF-295 54.3 µM | EKVX 47.9 µM | SW-620 53.1 µM | OVCAR-8 33.8 µM | M14 49.8 µM

Cn1c(=O)oc2cc(C(O)CN3CCN(Cc4ccc5c(c4)OCO5)CC3)ccc21 (centres undefined)
inactive: NCI-H23 > 100 µM | T47D > 100 µM | OVCAR-3 > 100 µM | NCI-H522 > 100 µM | A498 > 100 µM | PC-3 > 100 µM | U-251 > 100 µM | HCC 2998 > 100 µM | IGROV-1 > 100 µM | SN12C > 100 µM | SF-268 > 100 µM | TK-10 > 100 µM | SF-295 > 100 µM | EKVX > 100 µM | SW-620 > 100 µM | OVCAR-8 > 100 µM | M14 > 100 µM

CN(C)CCOC1(Cc2ccc(Cl)cc2Cl)CCC(C(C)(C)C)CC1 (centres undefined)
inactive: NCI-H23 1.91 µM | OVCAR-3 2.42 µM | NCI-H522 2 µM | RPMI-8226 1.6 µM | A498 1.83 µM | PC-3 1.68 µM | U-251 1.88 µM | HCC 2998 1.57 µM | IGROV-1 1.83 µM | SN12C 1.73 µM | SF-268 3.01 µM | TK-10 1.26 µM | SF-295 2.09 µM | Hs-578T 2.4 µM | SW-620 2.4 µM | OVCAR-8 1.63 µM | M14 1.54 µM

COc1ccc(-n2sc3ncc(-c4ccccc4)cc3c2=O)cc1
inactive: NCI-H23 23.3 µM | T47D > 100 µM | OVCAR-3 20.3 µM | RPMI-8226 18.2 µM | A498 > 100 µM | PC-3 42.9 µM | U-251 27.6 µM | HCC 2998 92.7 µM | IGROV-1 22.1 µM | SN12C 27.9 µM | TK-10 66.1 µM | SF-295 > 100 µM | EKVX 69.5 µM | SW-620 30.7 µM | OVCAR-8 25.5 µM | M14 80 µM

COC(=O)C(C#CCCCCC#CC(NC(=O)OCc1ccccc1)(C(=O)OC)C(F)(F)F)(NC(=O)OCc1ccccc1)C(F)(F)F (centres undefined)
inactive: NCI-H23 > 100 µM | OVCAR-3 > 100 µM | NCI-H522 > 100 µM | RPMI-8226 4.36 µM | A498 > 100 µM | U-251 > 100 µM | HCC 2998 > 100 µM | IGROV-1 > 100 µM | SN12C > 100 µM | SF-268 > 100 µM | TK-10 > 100 µM | SF-295 > 100 µM | EKVX > 100 µM | SW-620 > 100 µM | OVCAR-8 > 100 µM | M14 > 100 µM

CCN(CC)CCCC(C)Nc1ccnc2cc(Cl)ccc12 (centres undefined) [CHLOROQUINE PHOSPHATE]
inactive: NCI-H23 > 84.7 µM | T47D 28.1 µM | OVCAR-3 97.1 µM | MDA-N 16.6 µM | NCI-H522 25.8 µM | RPMI-8226 19.5 µM | A498 24.3 µM | PC-3 19 µM | U-251 21.2 µM | HCC 2998 19.5 µM | IGROV-1 24.5 µM | SN12C 34.9 µM | SF-268 60.7 µM | TK-10 37.3 µM | SF-295 21 µM | EKVX > 57 µM | SW-620 > 57.4 µM | OVCAR-8 33.4 µM | M14 15 µM

COc1cc2c(oc(=O)c3cc4cc([Si](C)(C)C)oc4c(OC)c32)c2cccc(O)c12
inactive: NCI-H23 > 100 µM | OVCAR-3 > 100 µM | NCI-H522 > 100 µM | RPMI-8226 > 100 µM | A498 78.9 µM | U-251 > 100 µM | HCC 2998 > 100 µM | IGROV-1 > 100 µM | SN12C > 100 µM | SF-268 > 100 µM | TK-10 > 100 µM | SF-295 > 100 µM | EKVX > 100 µM | SW-620 > 100 µM | OVCAR-8 > 100 µM | M14 > 100 µM
